# Measured values: article PMC7139703, “Thiopurine Derivative-Induced Fpg/Nei DNA Glycosylase Inhibition: Structural, Dynamic and Functional Insights” (International Journal of Molecular Sciences, 2020)
# Like-named read-outs stand apart in the source and are kept apart here.
# Assays:
# LlFpg = target: T1, LlFpg (Lactococcus lactis subsp. cremoris, UniProt P42371); experiment: LlFpg 8-oxoG-DNA glycosylase/AP lyase activity assay (Urea-PAGE radioassay); type: biochemical
# T1 construct: made in house; host or cells: E. coli BH540 (fpg defective)
# Experimental: Figure 1 Effect of 2-thioxanthine (2TX)-derivatives on Fpg activity. A total of 20 nM of 5′-[^32P]-8-oxoG-containing 24-bp DNA duplex (labeled on the damaged strand) was incubated with 2 nM of LlFpg alone (dimethyl sulfoxide (DMSO) control) or with the indicated 2TX and 2TX-derivatives (TXn) concentrations, as described in the “Materials and Methods” section. (a) Screening of TXn for Fpg inhibition. Averages and standard deviations were obtained from at least three independent experiments. Mono- and di-thiolated compounds are highlighted in red and blue, respectively. (b) Dose-response curves for best inhibitors. Each data point represents the mean value obtained from at least three independent measurements.
# (§1) Fpg, hNeil1 and mvNei1 are bifunctional DNA glycosylases associated with concerted DNA glycosylase activity (cleavage of the N-glycosidic bond between the base lesion and the C1′ of the deoxyribose) and AP lyase activity that comprises the successive cleavage of the phosphodiester bonds at the 3′ and 5′ of the resulting abasic (AP) site, respectively (β, δ-elimination). Thus, AP sites that result from the excision of the damaged base are quantitatively converted into one nucleoside gap by these enzymes. The DNA glycosylase/AP lyase activity of each enzyme was measured by incubating 20 nM of 24-mer DNA duplexes ([OG:C] and [DHU:G] for Fpg and hNeil1/mvNei1, respectively) 5′-labeling on the damaged strand (see above) with 2 nM of Fpg, or mvNei1 for 15 min or, with 20 nM of hNeil1 for 30 min at 37 °C in 10 mM Tris-HCl, pH 7.6, 150 mM NaCl, 1 mM EDTA, 0.1 mg/mL BSA and 8% DMSO. The reaction was stopped by the addition of 1 volume of formamide loading buffer (96% formamide, 20 mM Tris/HCl pH 8.0 and 2 mM Na2EDTA), heated at 80 °C for 2 min and then analyzed by 20% Urea-PAGE, as previously described. […] Under these conditions, only 50% of the substrate is converted to the cleavage product (limiting enzyme concentration conditions). For an initial evaluation of the inhibitory effect, 40 µM of 2TX/TXn was used. The thio-compound was added to the reaction mixture before the final addition of the enzyme (competition condition). For the best identified inhibitors, a dose-response curve was generated and IC50^A determined (Figure 1 and Table 1).
# mvNei1 [1] = target: T2, mvNei1 (Acanthamoeba polyphaga mimivirus, UniProt Q5UQ00); experiment: mvNei1 DNA glycosylase/AP lyase activity assay on DHU:G 24-mer duplex; type: biochemical
# T2 construct: 6His (C); made in house; host or cells: E. coli Rosetta2 (DE3)
# Experimental: (§2) Figure 4 Comparative analysis of the effect of 2TX and TXn on Fpg/Nei DNA glycosylases. Enzyme activities were measured as described in the Figure 1 legend using […] of a 5′-[^32P]-24-mer DNA duplex containing either an 8-oxoG opposite C for LlFpg or a […] (DHU) opposite G for hNeil1 and mvNei1. The DNA probe was incubated with the indicated protein concentration and 0.2 mM TXn compounds in the presence or absence of 1 mM dithiothreitol (DTT) and TCEP (a representative experiment is illustrated by the upper histograms). The DNA probe for EMSA was 0.1 nM of 5′-[^32P]-24-mer DNA duplex containing THF with LlFpg and mvNei1 (bottom panels: gel autoradiography) with the indicated conditions and as described in ‘Materials and Methods’.
# as §1
# hNeil1 [2] = target: T3, hNeil1 (Homo sapiens, UniProt Q96FI4); experiment: EMSA, hNeil1 DNA binding to THF-containing DNA duplex; settings: Figure 4
# Target sequence in this assay (Q96FI4 2-290 limits assumed): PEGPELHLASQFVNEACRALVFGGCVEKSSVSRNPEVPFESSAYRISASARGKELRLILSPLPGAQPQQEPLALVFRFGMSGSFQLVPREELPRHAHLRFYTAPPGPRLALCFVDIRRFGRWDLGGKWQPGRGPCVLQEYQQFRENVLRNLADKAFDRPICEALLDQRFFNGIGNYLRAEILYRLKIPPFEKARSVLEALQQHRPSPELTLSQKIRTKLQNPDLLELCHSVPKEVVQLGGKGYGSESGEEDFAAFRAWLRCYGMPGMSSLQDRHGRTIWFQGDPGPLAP
# mvNei1 [3] = target: T2, mvNei1; experiment: EMSA, mvNei1 DNA binding to THF-containing DNA duplex; settings: Figure 4
# Experimental: as §2, with “The DNA probe for EMSA was 0.1 nM of 5′-[^32P]-24-mer DNA duplex containing THF with LlFpg and mvNei1 (bottom panels: gel autoradiography) with the indicated conditions and as described in ‘Materials and Methods’.” left out
# The DNA binding activity was measured using EMSA [37]. […] After electrophoresis, the gels were dried and exposed overnight for autoradiography using a Typhoon imager and quantified with ImageQuant software. To evaluate the inhibitor effect of 2TX/TXn on the DNA binding activity of each Fpg/Nei enzyme, we first determined the experimental conditions required to bind 50% of the DNA probes without an inhibitor in the presence of 8% DMSO (limiting enzyme concentration). […] This effect was determined by the addition of the thio-compound in the pre-equilibrium mixture of the enzyme and DNA probe (30 min) and incubated for an additional 30 min at 4 °C. For the best inhibitors of Fpg, a dose-response curve was established from at least three independent experiments and the IC50 was determined (IC50^B, Table 1).
# hNeil1 [4] = target: T3, hNeil1; experiment: hNeil1 DNA glycosylase/AP lyase activity assay on DHU:G 24-mer duplex; type: biochemical; set-up: Overproduction was performed as described above for full length hNeil1; 6His (C); made in house; host or cells: E. coli Rosetta2 (DE3)
# Experimental: as §2, §1
# Target sequence in this assay (Q96FI4 whole entry): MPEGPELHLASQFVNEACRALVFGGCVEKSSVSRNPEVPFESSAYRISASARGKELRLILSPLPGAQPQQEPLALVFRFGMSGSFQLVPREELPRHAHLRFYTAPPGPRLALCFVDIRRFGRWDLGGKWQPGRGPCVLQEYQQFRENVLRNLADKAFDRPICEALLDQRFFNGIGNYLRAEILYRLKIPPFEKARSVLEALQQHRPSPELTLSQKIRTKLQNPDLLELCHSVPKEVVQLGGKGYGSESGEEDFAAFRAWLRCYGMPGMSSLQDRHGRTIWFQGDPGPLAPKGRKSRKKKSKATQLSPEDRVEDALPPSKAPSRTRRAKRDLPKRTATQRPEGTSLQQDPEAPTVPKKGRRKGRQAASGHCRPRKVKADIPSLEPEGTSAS
# LlFpg/DNA complex C1 = target: T4, LlFpg/DNA complex C1 (Lactococcus lactis subsp. cremoris, UniProt P42371); experiment: EMSA, Fpg DNA binding to 14-mer [THF:C] duplex, complex C1 (lesion recognition complex, Fpg/DNA 1/1); settings: homogeneous reduced or disulfide form in 50 mM sodium phosphate; 14-mer [THF:C]; read-out: IC50^B (Fpg DNA binding), homogeneous redox forms
# T4 construct: made in house; host or cells: E. coli BH540 (fpg defective)
# Description: (§3) To complement this study, we examined the effect of TXn on the binding of Fpg to a short DNA duplex containing a tetrahydrofuran (THF), a non-cleavable AP site analog. The enzyme specifically recognizes THF and forms a stable abortive complex with DNA [18, 34, 35, 36]. […] A representative titration experiment (with and without TCEP) of the 14-mer [THF:C] Fpg formed two stable complexes with this short DNA probe that were easily observed by EMSA: a high-affinity complex C1 corresponding to the lesion recognition complex (LRC), with nanomolar affinity, and a complex C2 only observed at higher Fpg concentrations. C2 results in C1 titration by a second Fpg molecule. This finding illustrates that the crystal structure of Fpg bound to 8-oxoG-carbanucleotide-containing DNA [38] (Figure S5). The stability of each preformed complex was then examined by EMSA in the presence of 2TX or TXn. […] The enzyme inactivation mediated by 2TX through ZnF oxidation that directly affects the DNA binding properties of the enzyme is also in agreement with this last observation.
# Figure 2 The effect of 2TX and TXn on Fpg DNA binding to abasic site-containing DNA. A 14-mer DNA duplex containing a tetrahydrofurane (THF) site as an abasic site analog was incubated with a limiting Fpg concentration (0.25 nM) with and without increasing concentrations of TXn. Incubation mixtures were then analyzed by electrophoretic mobility shift assay (EMSA), as described in the ‘Materials and Methods’. (a) Titration experiments with (+) and without (-) 2 mM tris(2-carboxyethyl)phosphine hydrochloride (TCEP) C1 and C2 are for the [1/1] and [2/1] Fpg/DNA complexes, respectively (see detailed in the text). (b) Fpg DNA binding concentration-dependence for 2TX and the more efficient TXn inhibitors. A representative EMSA autoradiography with 0.25 nM of Fpg alone (lane no) and 0.5, 2.5, 5, 10, 20, 40, 50, 250, 1000 µM is shown in the upper panel. IC50app^B corresponds to the TXn amount needed to halve the C1 complex formation and was extracted from the dose-response curves (lower panel; Table 1).
# (§4) The DNA binding activity was measured using EMSA [37]. Briefly, 0.1 nM of the 5′-labeled 14-mer [THF:C] (see above) was incubated with the enzyme at 4 °C for 30 min in 25 mM HEPES/NaOH (pH 7.5), 150 mM NaCl, 5% glycerol, 0.1 mg/mL BSA and 8% DMSO. The incubation mixture was then loaded onto a native 10% polyacrylamide gel (Acryl/Bis 19/1) and electrophoresed at 25 V/cm for 90 min at 4 °C. After electrophoresis, the gels were dried and exposed overnight for autoradiography using a Typhoon imager and quantified with ImageQuant software. To evaluate the inhibitor effect of 2TX/TXn on the DNA binding activity of each Fpg/Nei enzyme, we first determined the experimental conditions required to bind 50% of the DNA probes without an inhibitor in the presence of 8% DMSO (limiting enzyme concentration). Under these conditions, we obtained the half-maximal DNA binding 0.25, 7 and 5 nM of Fpg, hNeil1 and mvNei1. We used this limited enzyme concentrations to evaluate the inhibitor effect of 2TX/TXn on the enzyme DNA binding activity. This effect was determined by the addition of the thio-compound in the pre-equilibrium mixture of the enzyme and DNA probe (30 min) and incubated for an additional 30 min at 4 °C. For the best inhibitors of Fpg, a dose-response curve was established from at least three independent experiments and the IC50 was determined (IC50^B, Table 1).
# LlFpg/DNA complex C2 = target: T5, LlFpg/DNA complex C2 (Lactococcus lactis subsp. cremoris, UniProt P42371); experiment: EMSA, Fpg DNA binding to 14-mer [THF:C] duplex, non-specific complex C2 (Fpg/DNA 2/1); settings: 2 mM TCEP, 6.7-fold molar excess over compound; Figure 3
# T5 construct: made in house; host or cells: E. coli BH540 (fpg defective)
# T5 sequence (P42371 2-273 limits assumed): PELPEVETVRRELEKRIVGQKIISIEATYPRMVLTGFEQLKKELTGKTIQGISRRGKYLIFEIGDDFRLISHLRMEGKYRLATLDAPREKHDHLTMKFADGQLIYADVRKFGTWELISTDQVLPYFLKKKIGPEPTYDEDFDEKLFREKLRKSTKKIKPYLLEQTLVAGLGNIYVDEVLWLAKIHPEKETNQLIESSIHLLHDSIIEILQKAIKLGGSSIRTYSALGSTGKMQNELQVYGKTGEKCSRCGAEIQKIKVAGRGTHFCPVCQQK
# Description: as §3
# The inhibitor concentrations that induced the loss of the half-maximal binding (IC50app^B) were determined from these curves and are reported in Table 1. IC50app^B compared well with IC50app^A. As observed above for the enzyme activity, strong reducers, such as TCEP, abolished the negative effects of 2TX and TXn on Fpg/DNA complex stability and formation. These findings again indicate that inhibition by thio-compounds essentially relies on the oxidation of the Fpg ZnF (for an example, see experiment with TX19, Figure S4). […] This troubling and unexpected observation led us to evaluate this effect with the TXn small library compounds. To prevent a side effect due to a possible partial reduction by TCEP, we performed EMSA in the presence of a 6.7-fold molar excess of TCEP with respect to 2TX and TXn after complex formation (Figure 3).
# Figure 3 Impact of TXn on the non-specific Fpg/DNA complex C2 stability in highly reducing conditions. EMSA was performed as described in the ‘Material & Methods’, except TCEP was added at a 2 mM final concentration in each binding assay. (a) Representative experiment at 0.3 mM 2TX and more efficient TXn; (b) Dose-response with the best TXn. Upper panel: Representative EMSA experiment with TX10. Lower panel: Dose-response curves with the indicated TXn.
# as §4, with “1). […]” for “1).”
# Rieux et al. Thiopurine derivative-induced Fpg/Nei DNA glycosylase inhibition:
# structural, dynamic and functional insights
# Figure S6. […]
# [5] = 1 mM TCEP (DTT to a lesser extent), Figure 4
# T2 sequence (Q5UQ00 whole entry): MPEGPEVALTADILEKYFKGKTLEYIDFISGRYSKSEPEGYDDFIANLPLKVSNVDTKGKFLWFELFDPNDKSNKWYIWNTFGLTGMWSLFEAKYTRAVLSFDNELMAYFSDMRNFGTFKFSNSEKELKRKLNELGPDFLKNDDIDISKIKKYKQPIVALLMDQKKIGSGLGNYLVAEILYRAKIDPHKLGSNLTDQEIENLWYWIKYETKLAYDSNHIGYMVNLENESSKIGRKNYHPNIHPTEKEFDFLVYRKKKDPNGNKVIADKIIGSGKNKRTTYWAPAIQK
smiles,measurement,setting,value
O=c1[nH]c2[nH]c(=S)[nH]c(=S)c2[nH]1 [TX16],IC50,"LlFpg; catalytic activity at 37 °C, compound stock (redox mixture) in DMSO, 20 nM 8-oxoG:C 24-mer, 2 nM LlFpg, read-out: IC50app^A (Fpg/Nei enzyme catalysis) LlFpg",41 ± 7 µM
same,effect on mvNei1 catalytic activity,"mvNei1 [1]; 0.2 mM compound, Figure 4",apparent inhibitory effects
same,inhibition of mvNei1 DNA binding and catalytic activities in the presence of TCEP,mvNei1 [1]; [5],suppressed
same,IC50,"mvNei1 [1]; catalytic activity at 37 °C, compound stock in DMSO, DHU:G 24-mer, read-out: IC50app^A (Fpg/Nei enzyme catalysis) mvNEI1",14 ± 1 µM
same,effect on hNeil1 DNA binding activity,hNeil1 [2],apparent inhibitory effects
same,effect on mvNei1 DNA binding activity,mvNei1 [3],apparent inhibitory effects
same,effect on hNeil1 catalytic activity,"hNeil1 [4]; 0.2 mM compound, Figure 4",apparent inhibitory effects
same,inhibition of hNeil1 DNA binding and catalytic activities in the presence of TCEP,hNeil1 [4]; [5],suppressed
same,IC50,"hNeil1 [4]; catalytic activity at 37 °C, compound stock in DMSO, DHU:G 24-mer, read-out: IC50app^A (Fpg/Nei enzyme catalysis) hNEIL1",21 ± 1 µM
O=c1[nH]c2nc(SSc3nc4[nH]c(=O)[nH]c4c(=O)[nH]3)[nH]c(=O)c2[nH]1 [TX14Ox],IC50,"LlFpg; homogeneous reduced or disulfide form dissolved in 50 mM sodium phosphate, no DMSO stock, read-out: IC50^A (Fpg catalysis), homogeneous redox forms",2.7 µM
same,inhibition of mvNei1 by homogeneous disulfide forms,mvNei1 [1]; Figure 6d,neither 2TXOx nor TX14Ox inhibited
same,IC50,LlFpg/DNA complex C1,26 ± 1 µM
same,inhibition of hNeil1 by homogeneous disulfide forms,hNeil1 [4]; Figure 6d,neither 2TXOx nor TX14Ox inhibited
CNc1nc(C(F)(F)F)nc2[nH]cnc12 [TX11],destabilization of complex C2 in highly reducing conditions,LlFpg/DNA complex C2,among the best C2 destabilizers
Cc1nc(S)c2[nH]cnc2n1 [TX4],effect on Fpg 8-oxoG-DNA glycosylase/AP lyase activity (screening),"LlFpg; 40 µM compound, Figure 1a",drastically decreased the inhibitory effect
